Measured values: US9689043B2 (CHUNGBUK NATIONAL UNIVERSITY INDUSTRY—ACADEMIC COOPERATION …, priority 2012, dated 2017)

Tested on: T24 human bladder cancer cells
Assay: Cell viability assay (MTS) in transfected T24 cells incubated with drugs
Type: cell-based
Description: T24 human bladder cancer cells were purchased from American Type Culture Collection (ATCC, Manassas, Va.) and maintained in RPMI1640 media (Invitrogen, Carlsbad, Calif.) with 10% FBS and 1% Penicillin/Streptomycin at 37° C. under 5% CO2. T24 cells at ˜80% confluence were transiently transfected with expressing constructs or small interfering RNAs (siRNAs) of EGFR and S100A9 using Lipofactamine 2000. For S100A9 overexpression, pCMV-Sports6-S100A9 and vector constructs were kindly provided by Dr. A. Moon (Duksung University, Korea). As transfection controls, empty (Ctrl) or NON-TARGET control siRNAs (siCtrl) were used.
Cell viability was determined using MTS reagents as instructed by the manufacturer's protocol (Promega Corporation, Madison, Wis.).

SMILES | Cell viability (T24 cells, EGFR inhibition with Iressa (FIG. 6, line 2)) | Chemo-sensitivity to cisplatin (T24 cells, EGFR inhibition with Iressa plus cisplatin (FIG. 6, line 2)) | Chemo-sensitivity to cisplatin (T24 cells, Iressa combined with S100A9 silencing by siRNA, plus cisplatin (FIG. 6, line 4)) | Cisplatin-induced apoptosis / viability (EGFR overexpressing T24 cells, 10 μM cisplatin, serum free medium)
COc1cc2ncnc(Nc3ccc(F)c(Cl)c3)c2cc1OCCCN1CCOCC1 [Iressa, gefitinib] | significantly reduced viability | enhanced chemo-sensitivity to cisplatin | synergistically enhanced chemo-sensitivity | 
N.N.[Cl][Pt][Cl] [cisplatin] |  |  |  | did not show significant apoptosis until 24 h-treatment
